Reference: patent US9877836B2, “Compression resistant implants including an oxysterol and methods of use” (Warsaw Orthopedic, Inc., priority 2015, dated 2018)
Entries after “also recorded” stand apart in the source; their conditions may differ.

Assays:
[1] = test system: multipotent mesenchymal cells such as M2-10B4 (M2) marrow stromal cells and C3H10T1/2 embryonic fibroblasts; conditions: Kha et al. J Bone Miner Res 19:830-840, 2004; cited from earlier work
[2] = test system: rat spines (posterolateral space, L3-L5); test: posterolateral spinal fusion in rat two-level spine model; type: in vivo; conditions: for bone growth on radiographs: 4-week and 8-week timepoints; for fusion by manual palpation of the spine segments (in words): 8 weeks; for fusion observed in rat spines (manual palpation): matrix of Oxy133, collagen and ceramic wetted with sterile water, two implants bilaterally, 8-week sacrifice, 5/5 spines
Procedure: FIG. 6 illustrates uses of a formulation of malleable implants having 20 mg of Oxy133 on each side of the implant, in accordance with the malleable implants described herein. […] A dry composition of a matrix containing Oxy133, collagen and ceramic as described herein was prepared and wetted with sterile water to be implanted in rat spines as shown in FIG. 6. The wetted matrix was cut in half with a razor blade to yield two halves. The two implants were molded into cylindrical shapes prior to insertion and were positioned bilaterally in the posterolateral space of each test subject. Each implant contained 20 mg Oxy133. Radiographs were taken roughly 10 minutes after the procedure, 4 weeks after the procedure, and 8 weeks after the procedure. […] Fusion was tested at 8-week sacrifice by manual palpation. […] A dry composition of a matrix containing Oxy133, collagen and ceramic as described herein was prepared and wetted with sterile water to be implanted in rat spines as shown in FIG. 6. The wetted matrix was cut in half with a razor blade to yield two halves. The two implants were molded into cylindrical shapes prior to insertion and were positioned bilaterally in the posterolateral space of each test subject. Each implant contained 125 mg Oxy133. Radiographs were taken roughly 10 minutes after the procedure, 4 weeks after the procedure, and 8 weeks after the procedure. […] Fusion was tested at 8-week sacrifice by manual palpation.

Mesenchymal stem cells = conditions: general statement, no experiment described; cited from earlier work

In the case of `CC(C)CCC[C@](C)(O)[C@H]1CC[C@H]2[C@@H]3CC=C4C[C@@H](O)CC[C@]4(C)[C@H]3CC[C@@]21C` [20(S)-hydroxycholesterol], the osteogenic differentiation [1] is given as “induce osteogenic differentiation”.
In the case of `CC(C)CC[C@@H](O)[C@@H](C)[C@H]1CC[C@H]2[C@@H]3CC=C4C[C@@H](O)CC[C@]4(C)[C@H]3CC[C@]12C` [22(R)-hydroxycholesterol], the osteogenic differentiation [1] is given as “induce osteogenic differentiation”.
In the case of `CC(C)CC[C@H](O)[C@@H](C)[C@H]1CC[C@H]2[C@@H]3CC=C4C[C@@H](O)CC[C@]4(C)[C@H]3CC[C@]12C` [22(S)-hydroxycholesterol], the osteogenic differentiation [1] is listed as “induce osteogenic differentiation”.
For `CCCCCC[C@](C)(O)[C@H]1CC[C@H]2[C@@H]3C[C@H](O)[C@H]4C[C@@H](O)CC[C@]4(C)[C@H]3CC[C@@]21C` [Oxy133, (3S,5S,6S,8R,9S,10R,13S,14S,17S)-17-((S)-2-hydroxyoctan-2-yl)-10,13-dimethylhexadecahydro-1H-cyclopenta[α]phenanthrene-3,6-diol], the “bone growth on radiographs” value ([2]; implants with 20 mg Oxy133 each) was “promoted bridging bone across the transverse processes of L3-L5; also recorded: Bone growth in rat test subjects can be seen”, the “fusion by manual palpation of the spine segments (in words)” value ([2]; implants with 20 mg Oxy133 on each side) was “fusion was confirmed” and the “bone growth on radiographs” value ([2]; implants with 125 mg Oxy133 each) was “promoted bridging bone across the transverse processes of L3-L5; also recorded: Bone growth in rat test subjects can be seen”. For the same molecule, the “fusion by manual palpation of the spine segments (in words)” value ([2]; implants with 125 mg Oxy133 on each side) was “fusion was confirmed”, the “fusion observed in rat spines (manual palpation)” value ([2]; each 20 mg Oxy133) was 100% and the “fusion observed in rat spines (manual palpation)” value ([2]; each 125 mg Oxy133) was 100%. The osteoblast differentiation (Mesenchymal stem cells) was “increased osteoblast differentiation”.
